Experimental data from US4424229A, “Fluorine containing 2,4,5-triphenylimidazoles” (A/S Dumex (Dumex Ltd.), priority 1982, dated 1984).
Like-named read-outs stand apart in the source and are kept apart here.

Tests used:
[1] = test system: acetic acid induced writhing movements; test: Writhing test in mice (acetic acid); assay type: in vivo, mice (NMRI/BOM); conditions: Mus musculus, po, 20 min, read-out: Analgesic ED50, writhing test
Method: (§1) Tests for analgesic activity
(§2) 1. Writhing test in mice. (SPF females of the strain NMRI/BOM, weighing 20-25 g). The test substance was administered by gavage 1/2 hour prior to an intraperitoneal injection of acetic acid. The number of writhing movements in 20 minutes was counted.

[2] = test system: arachidonic acid induced aggregation of human platelet rich plasma; test: Platelet aggregation inhibition test (arachidonic acid induced, human platelet rich plasma); assay type: cell-based; conditions: AA = arachidonic acid
Method: Platelet aggregation inhibition test The ability of the test substance to inhibit arachidonic acid induced aggregation of human platelet rich plasma was tested in a HU aggregometer (from H. Upchurch & Co. Ltd.).

[3] = test system: arachidonic acid induced bronchoconstrictions; test: Inhibition of arachidonic acid induced bronchoconstrictions in guinea-pigs; assay type: in vivo; conditions: Cavia porcellus, read-out: Inhibition of arachidonic acid induced bronchoconstrictions ID50
Method: Inhibition of arachidonic acid (AA) induced bronchoconstrictions in guinea-pigs. Test compounds were given intravenously to anaesthetized guinea-pigs 5 min. before intravenous injection of AA (200-500 μg/kg). Bronchial pressure was measured and percent inhibition calculated as compared to the mean of 3 preceding AA-induced control constrictions obtained after injection of vehicle in the same animal.

PG-synthetase = test: Prostaglandin-synthetase inhibition test (Vane); assay type: biochemical; conditions: AA = arachidonic acid
in vivo = conditions: mouse; for LD50 at 168 h: po, read-out: Acute toxicity LD50
Method: Test for acute toxicity (LD50) in mice
The test substance was administered by gavage.

[4] = Ulcerogenic activity in rats; assay type: in vivo, rats (Sprague-Dawley); conditions: rat, in vivo, po
Method: (§3) Ulcerogenic activity in rats
(§4) SPF males of the strain Sprague-Dawley weighing 180-250 g were used. 5 hours after administration by gavage of the test substance the rates were killed by an overdose of ether. The stomachs were removed and opened along the greater curvature. The number of ulcers was assessed and compared to control rats.

[5] = test system: brewer's yeast injected rat paw; test: Randall-Selitto test in rats (analgesia-meter, brewer's yeast paw); assay type: in vivo, rats (Sprague-Dawley); conditions: po, gavage 2 hours after brewer's yeast in paw, read-out: Analgesic ED50, analgesia-meter
Method: Tests for analgesic activity 2. Randall-Selitto test in rats. (SPF males of the strain Sprague-Dawley, weighing 90-100 g). The test was performed on the whole as described by Randall and Selitto: Arch. Int. Pharmacodyn. Ther. 111, 409 (1957).

[6] = Tests for analgesic activity (general); assay type: in vivo, mice; rats; conditions: compared with the compounds of the invention, or general
Method: as §1, §2
2. Randall-Selitto test in rats. (SPF males of the strain Sprague-Dawley, weighing 90-100 g). The test was performed on the whole as described by Randall and Selitto: Arch. Int. Pharmacodyn. Ther. 111, 409 (1957). An analgesia-meter of the make Ugo Basile was used and the test substance was administered by gavage 2 hours after injection of a suspension of brewer's yeast into the rat paw.

stomach ulcers = test: Ulcerogenic activity in rats; assay type: in vivo, rats (Sprague-Dawley); conditions: rats, gavage, 5 hours
Method: as §3, §4

[7] = test system: carrageenin-injected rat paw; test: Test for antiinflammatory activity in rats (carrageenin paw); assay type: in vivo, rats (Sprague-Dawley); conditions: po, read-out: Antiinflammatory test ED50
Method: Test for antiinflammatory activity in rats SPF males of the strain Sprague-Dawley, weighing~150 g were used. The test was performed according to Winter et al.: Proc. Soc. […] The test substance was given by gavage 1 hour prior to injection of a carrageenin-suspension into the rat paw.

[8] = mice, gavage 1/2 hour before i.p. acetic acid, writhings in 20 minutes
[9] = guinea-pigs, intravenous, 5 min before i.v. AA (200-500 μg/kg)

Compound | ED50 [1, 8] | Inhibition of platelet aggregation IC100 [2] | ED50 [3, 9] | Inhibition of PG-synthetase IC50 (PG-synthetase) | further results
COc1ccc(-c2nc(-c3ccc(F)cc3)n(CCC(=O)O)c2-c2ccc(OC)cc2)cc1 [Compound 1, 1-(2-Carboxyethyl)-2-(4-fluorphenyl)-4,5-bis(4-methoxyphenyl)imidazole, reference compound] | > 200 mg/kg |  |  |  | 
COc1ccc(-c2nc(-c3ccccc3F)[nH]c2-c2ccc(OC)cc2)cc1 [Compound 2, 2-(2-Fluorphenyl)-4,5-bis(4-methoxyphenyl)imidazole] | 15 mg/kg | 0.024 μg/190 μg AA | 0.0106 mg/kg | 0.23 μg/10 μg AA | 
COc1ccc(-c2nc(-c3cccc(F)c3)[nH]c2-c2ccc(OC)cc2)cc1 [Compound 3, 2-(3-Fluorphenyl)-4,5-bis(4-methoxyphenyl)imidazole] | 3.2 mg/kg | 0.12 μg/190 μg AA | 0.0036 mg/kg | 0.21 μg/10 μg AA | 
COc1ccc(-c2nc(-c3ccc(F)cc3)[nH]c2-c2ccc(OC)cc2)cc1 [Compound 4, 2-(4-Fluorphenyl)-4,5-bis(4-methoxyphenyl)imidazole] | 5 mg/kg | 0.048 μg/190 μg AA | 0.0047 mg/kg | 0.18 μg/10 μg AA | 
COc1ccc(-c2nc(-c3cccc(F)c3F)[nH]c2-c2ccc(OC)cc2)cc1 [Compound 5, 2-(2,3-Difluorphenyl)-4,5-bis(4-methoxyphenyl)imidazole] | 4.6 mg/kg | 0.024 μg/190 μg AA | 0.0087 mg/kg | 0.21 μg/10 μg AA | LD50 at 168 h (in vivo): 3120 mg/kg
COc1ccc(-c2nc(-c3ccc(F)cc3F)[nH]c2-c2ccc(OC)cc2)cc1 [Compound 6, 2-(2,4-Difluorphenyl)-4,5-bis(4-methoxyphenyl)imidazole] | 4 mg/kg | 0.12 μg/190 μg AA | 0.0021 mg/kg | 0.27 μg/10 μg AA | TD50 at 5 h [4]: 1580 mg/kg
COc1ccc(-c2nc(-c3cc(F)ccc3F)[nH]c2-c2ccc(OC)cc2)cc1 [Compound 7, 2-(2,5-Difluorphenyl)-4,5-bis(4-methoxyphenyl)imidazole] | 16 mg/kg | 0.024 μg/190 μg AA | 0.0024 mg/kg | 1.71 μg/10 μg AA | 
COc1ccc(-c2nc(-c3c(F)cccc3F)[nH]c2-c2ccc(OC)cc2)cc1 [Compound 8, 2-(2,6-Difluorphenyl)-4,5-bis(4-methoxyphenyl)imidazole] | 6.8 mg/kg | 0.012 μg/190 μg AA | 0.0049 mg/kg | 0.13 μg/10 μg AA | 
COc1ccc(-c2nc(-c3ccc(F)c(F)c3)[nH]c2-c2ccc(OC)cc2)cc1 [Compound 9, 2-(3,4-Difluorphenyl)-4,5-bis(4-methoxyphenyl)imidazole] | 1.9 mg/kg | 0.006 μg/190 μg AA | 0.0115 mg/kg | 0.11 μg/10 μg AA | TD50 at 5 h [4]: 45 mg/kg; ED50 [5]: 0.062 mg/kg
COc1ccc(-c2nc(-c3cc(F)cc(F)c3)[nH]c2-c2ccc(OC)cc2)cc1 [Compound 10, 2-(3,5-Difluorphenyl)-4,5-bis(4-methoxyphenyl)imidazole] | 10 mg/kg | 0.12 μg/190 μg AA | 0.0097 mg/kg | 0.38 μg/10 μg AA | LD50 at 168 h (in vivo): > 2000 mg/kg
COc1ccc(-c2nc(C(F)(F)F)[nH]c2-c2ccc(OC)cc2)cc1 [Compound 11, 2-Trifluormethyl-4,5-bis(4-methoxyphenyl)imidazole, reference compound] | 75 mg/kg | 0.06 μg/190 μg AA |  |  | Toxicity (in words) (in vivo): higher toxicity than the compounds of the present invention; Analgesic activity (in words) [6]: weaker analgesic activity
COc1ccc(-c2nc(C(C)C)[nH]c2-c2ccc(OC)cc2)cc1 [Compound 12, 2-Isopropyl-4,5-bis(4-methoxyphenyl)imidazole, reference compound] | 200 mg/kg |  |  |  | Analgesic activity (in words) [6]: much weaker analgesic activity than the compounds of the present invention
COc1ccc2c(c1)c(CC(=O)O)c(C)n2C(=O)c1ccc(Cl)cc1 [Compound 13, Indomethacin, reference compound] |  | 1.19 μg/190 μg AA |  | 0.65 μg/10 μg AA | Ulcerogenic activity ED50 (stomach ulcers): 9.7 mg/kg; ED50 ([3]; iv): 0.115 mg/kg; ED50 [1]: 8 mg/kg; ED50 [7]: 28 mg/kg; ED50 [5]: 0.36 mg/kg
COc1ccc2cc([C@H](C)C(=O)O)ccc2c1 [Compound 14, Naproxen, reference compound] |  |  |  | 0.49 μg/10 μg AA | Ulcerogenic activity ED50 (stomach ulcers): 19.5 mg/kg
CC(=O)Oc1ccccc1C(=O)O [Compound 15, Acetyl salicylic acid, reference compound] |  | 2.38 μg/190 μg AA |  | 7.61 μg/10 μg AA | Ulcerogenic activity ED50 (stomach ulcers): 340 mg/kg; ED50 ([3]; iv): 0.234 mg/kg; ED50 [1]: 100 mg/kg; ED50 [7]: 350 mg/kg
CC(C)(C)NCC(O)c1ccc(O)c(CO)c1 (stereo not shown) [Compound 16, Salbutamol, reference compound] |  |  | 0.016 mg/kg |  | 
